Drawing on PubChem BioAssay (NCI), this text covers TGI and GI50 for eight compounds.

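A five-concentration, 48-hour dose response in 96-well plates underlies each endpoint, interpolated linearly between surrounding concentrations. The concentration for 50% growth inhibition is given as GI50. The concentration for full growth arrest is given as TGI.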

Test systems include K-562 leukemia; CCRF-CEM leukemia; IGROV1 ovarian; COLO 205 colon; SNB-19 CNS; UO-31 renal; 786-0 renal; HCT-116 colon; ACHN renal; HL-60(TB) leukemia.
Common to all, as to assay: DTP human tumour cell line panel, 48 h

As to `O=C(O)c1ccccc1/C=C1/Nc2ccccc2C1=O`, the TGI in the experiment with K-562 leukemia, in the experiment with CCRF-CEM leukemia, in the experiment with IGROV1 ovarian, in the experiment with COLO 205 colon, in the experiment on SNB-19 CNS and in the experiment with UO-31 renal was > 100 µM each time. Also, the TGI in the experiment on 786-0 renal, in the experiment on HCT-116 colon, in the experiment on ACHN renal and in the experiment on HL-60(TB) leukemia was > 100 µM each time.

In the case of `Cc1cccc2c1C(=O)OC2(c1cccc2ccccc12)c1cccc2ccccc12`, the TGI in the experiment with K-562 leukemia, in the experiment on CCRF-CEM leukemia, in the experiment with IGROV1 ovarian, with COLO 205 colon, in the experiment with SNB-19 CNS and in the experiment on UO-31 renal was > 100 µM throughout. Moreover, the TGI in the experiment with 786-0 renal, in the experiment on HCT-116 colon, with ACHN renal and in the experiment with HL-60(TB) leukemia was > 100 µM throughout.

On to `Cc1nc(C)c(C(=O)NNC(=O)c2ccccc2)cc1C(=O)NNC(=O)c1ccccc1`, for which the TGI with K-562 leukemia was > 100 µM; in the experiment with CCRF-CEM leukemia, > 100 µM; with IGROV1 ovarian it was > 10 µM; in the experiment with COLO 205 colon, > 100 µM; with SNB-19 CNS, > 100 µM; with UO-31 renal it was > 100 µM. In addition, the total growth inhibition concentration (TGI) with 786-0 renal, in the experiment with HCT-116 colon, with ACHN renal and in the experiment with HL-60(TB) leukemia was > 100 µM in each case.

Take `Cn1cc(C2=C(c3cn(C)c4cc(Cl)ccc34)C(=O)NC2=O)c2ccccc21`: the GI50 with K-562 leukemia is 0.089 µM; in the experiment with CCRF-CEM leukemia, 0.093 µM; in the experiment with IGROV1 ovarian it was 0.24 µM; with COLO 205 colon it was 0.07 µM; in the experiment with SNB-19 CNS, 0.145 µM; in the experiment with UO-31 renal it was 0.195 µM. Also, the GI50 is 0.203 µM in the experiment on 786-0 renal, 0.113 µM in the experiment on HCT-116 colon, 0.181 µM in the experiment with ACHN renal and 0.0814 µM with HL-60(TB) leukemia. The TGI is > 25 µM in the experiment on K-562 leukemia; > 25 µM in the experiment with CCRF-CEM leukemia; > 13.2 µM in the experiment on IGROV1 ovarian; 0.18 µM with COLO 205 colon; > 25 µM in the experiment on SNB-19 CNS; > 25 µM in the experiment with UO-31 renal. The TGI with 786-0 renal is > 20.8 µM; with HCT-116 colon, > 20.6 µM; in the experiment with ACHN renal, > 25 µM; in the experiment on HL-60(TB) leukemia, 0.241 µM.

As to `C/C(=N/OCCC(=O)O)C1CC1`, the TGI in the experiment with K-562 leukemia, in the experiment on CCRF-CEM leukemia, in the experiment with IGROV1 ovarian, with COLO 205 colon, with SNB-19 CNS and with UO-31 renal was > 100 µM in each case. Besides, the total growth inhibition concentration (TGI) in the experiment with 786-0 renal, in the experiment on HCT-116 colon, in the experiment on ACHN renal and with HL-60(TB) leukemia was > 100 µM in each case.

`N#CC(N)(C(=O)C(=O)NCCCNC(=O)C(=O)C(N)(C#N)c1ccc(Cl)cc1)c1ccc(Cl)cc1` (centres undefined): the TGI in the experiment with K-562 leukemia, in the experiment with CCRF-CEM leukemia, in the experiment with IGROV1 ovarian, in the experiment on COLO 205 colon, in the experiment with SNB-19 CNS and in the experiment on UO-31 renal was > 100 µM in each case. Besides, the TGI in the experiment on 786-0 renal, with HCT-116 colon, with ACHN renal and in the experiment with HL-60(TB) leukemia was > 100 µM in each case.

On to `CCn1c(-c2nonc2N)nc2c(C#CC(C)(C)O)ncc(OCC3CCNCC3)c21`, for which the GI50 in the experiment on K-562 leukemia is > 25 µM; in the experiment with CCRF-CEM leukemia, 4.5 µM; with IGROV1 ovarian, 1.34 µM; in the experiment on COLO 205 colon it was 4.84 µM; with SNB-19 CNS it was 10.6 µM; in the experiment with UO-31 renal, 6.42 µM. The GI50 is 6.11 µM with 786-0 renal, 6.67 µM with HCT-116 colon, 8.13 µM with ACHN renal and 6.63 µM with HL-60(TB) leukemia. Besides, the TGI in the experiment with K-562 leukemia is > 25 µM; in the experiment on CCRF-CEM leukemia, > 25 µM; in the experiment with IGROV1 ovarian, > 25 µM; in the experiment with COLO 205 colon it was 15.2 µM; in the experiment on SNB-19 CNS, > 25 µM; with UO-31 renal, 18.5 µM. In addition, the TGI in the experiment with 786-0 renal was 24.6 µM; with HCT-116 colon, > 20.9 µM; in the experiment with ACHN renal it was > 25 µM; in the experiment on HL-60(TB) leukemia it was 17.2 µM.

On to `CCN(CC)c1ccc(/C=C2/NC(=O)NC2=O)cc1`, for which the GI50 with K-562 leukemia is 0.671 µM; with CCRF-CEM leukemia it was 9.66 µM; in the experiment on IGROV1 ovarian, 4.82 µM; in the experiment with COLO 205 colon, 4.63 µM; in the experiment on SNB-19 CNS it was 15.5 µM; in the experiment with 786-0 renal, 10.9 µM. The GI50 is 3.65 µM with HCT-116 colon, 26.5 µM in the experiment on ACHN renal and 4.9 µM in the experiment on HL-60(TB) leukemia. Moreover, the TGI with K-562 leukemia was > 100 µM; with CCRF-CEM leukemia, > 100 µM; with IGROV1 ovarian, > 27.6 µM; with COLO 205 colon, 23.6 µM; in the experiment on SNB-19 CNS, > 100 µM; in the experiment with UO-31 renal, > 100 µM. In addition, the TGI in the experiment with 786-0 renal, in the experiment with HCT-116 colon, in the experiment on ACHN renal and in the experiment on HL-60(TB) leukemia was > 100 µM throughout.

As a reminder, the TGI is the concentration at which net growth stops. A low value points to greater sensitivity of the cells. The term GI50 denotes the concentration giving 50% growth inhibition.
